# Earlier results as cited in patent US8497371B2, “Pipemidic acid derivative autotaxin inhibitors” (University of Memphis Research Foundation, priority 2009, dated 2013).
# Legend:
# [1] = biological target: ATX (Homo sapiens, UniProt Q13822); parameters: conditioned serum-free medium (CCM) from MDA-MB-435 cells as the source of ATX; endogenous in cells; host or cells: MDA-MB-435 cells (about 10x concentrated serum-free conditioned medium); conditions: cited from earlier work
# [2] = tested on: melanoma metastasis; conditions: micromolar concentrations; cited from earlier work
structure (smiles),measurement,setting,value
O=[As](O)(O)c1ccc(Cc2ccc([As](=O)(O)O)cc2)cc1 [NSC 48300],mechanism of inhibition (reported),[1],competitive
same,inhibition of melanoma metastasis,[2],~100%
